PubChem BioAssay (NCI)
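Cultured in 96-well plates, cells were exposed to test compound for 48 hours across five concentrations. TGI is the concentration that stops growth completely.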

Columns and labels:
Assay in all cases: NCI anticancer screen, dose series, 48 h
[1] = tested on: OVCAR-4 ovarian
[2] = tested on: DU-145 prostate
[3] = tested on: MALME-3M melanoma
[4] = tested on: SN12C renal
[5] = tested on: NCI-H460 lung
[6] = tested on: SK-MEL-2 melanoma
[7] = tested on: HT29 colon
[8] = tested on: HCC-2998 colon
[9] = tested on: CAKI-1 renal
[10] = tested on: EKVX NSCLC
[11] = tested on: PC-3 prostate
[12] = tested on: MCF7 breast
[13] = tested on: NCI-H522 lung
[14] = tested on: MDA-N
[15] = tested on: A549 NSCLC
[16] = tested on: HCT-15 colon
[17] = tested on: SK-OV-3 ovarian
[18] = tested on: A498 renal
[19] = tested on: 786-0 renal
[20] = tested on: HOP-62 NSCLC
[21] = tested on: SF-268 CNS
[22] = tested on: RPMI-8226 leukemia
[23] = tested on: HCT-116 colon
[24] = tested on: ACHN renal
[25] = tested on: NCI-H226 lung
[26] = tested on: LOX IMVI melanoma
[27] = tested on: HS 578T breast
[28] = tested on: UACC-62 melanoma
[29] = tested on: OVCAR-8 ovarian
[30] = tested on: RXF 393 renal
[31] = tested on: SR leukemia
[32] = tested on: TK-10 renal
[33] = tested on: OVCAR-3 ovarian
[34] = tested on: SK-MEL-5 melanoma
[35] = tested on: CCRF-CEM leukemia
[36] = tested on: T-47D breast
[37] = tested on: IGROV1 ovarian
[38] = tested on: NCI/ADR-RES ovarian
[39] = tested on: SNB-75 CNS
[40] = tested on: NCI-H23 lung
[41] = tested on: SNB-19 CNS
[42] = tested on: U251 CNS
[43] = tested on: SF-295 CNS
[44] = tested on: MDA-MB-231 breast
[45] = tested on: HOP-92 NSCLC
[46] = tested on: BT-549 breast
[47] = tested on: SF-539 CNS
[48] = tested on: M14 melanoma
[49] = tested on: SK-MEL-28 melanoma
[50] = tested on: MDA-MB-435
[51] = tested on: OVCAR-5 ovarian
[52] = tested on: MOLT-4 leukemia
[53] = tested on: K-562 leukemia
[54] = tested on: KM12 colon
[55] = tested on: UACC-257 melanoma
[56] = tested on: UO-31 renal
[57] = tested on: COLO 205 colon
[58] = tested on: SW-620 colon
[59] = tested on: HL-60(TB) leukemia

Measured: TGI

OCCCCn1cc(Cn2ncc3c(SCc4ccccc4)ncnc32)nn1
39.2 µM: [14]
77.3 µM: [52]
91.4 µM: [57]
90.9 µM: [58]
54.5 µM: [34]
85.4 µM: [31]
not listed: [59]
> 100 µM: all other assays above

CC(C)=CC(O)C/C(C)=C/CC/C(C)=C/CCC1(C)C(CCCO)/C(=C(/C)C=O)CCC1(C)O (centres undefined)
47.2 µM: [22]
90.6 µM: [30]
83.3 µM: [31]
88.6 µM: [20]
52.9 µM: [54]
70.9 µM: [7]
74.1 µM: [44]
79.2 µM: [12]
43.7 µM: [59]
43.6 µM: [24]
52 µM: [47]
83.2 µM: [52]
61.7 µM: [37]
68.2 µM: [8]
76.2 µM: [4]
60.9 µM: [48]
7.94 µM: [53]
52.4 µM: [14]
93 µM: [40]
> 100 µM: all other assays above

BrCCC[P+](c1ccccc1)(c1ccccc1)c1ccccc1
64.2 µM: [28]
38.6 µM: [33]
21 µM: [34]
16.8 µM: [26]
> 64.7 µM: [40]
48.3 µM: [55]
> 63.8 µM: [15]
36.5 µM: [36]
44.4 µM: [45]
> 76.5 µM: [14]
6.49 µM: [59]
> 94.6 µM: [52]
82.2 µM: [6]
2.99 µM: [23]
> 66.9 µM: [37]
59.2 µM: [39]
4.16 µM: [57]
7.55 µM: [30]
> 27.5 µM: [13]
> 51.8 µM: [50]
58.1 µM: [54]
86 µM: [44]
> 79.6 µM: [27]
> 100 µM: all other assays above

CCOC(=O)NC(NNc1ccc([N+](=O)[O-])cc1[N+](=O)[O-])(C(F)(F)F)C(F)(F)F
57.6 µM: [56]
47.4 µM: [22]
69.4 µM: [17]
96 µM: [32]
77 µM: [13]
73 µM: [18]
74.3 µM: [47]
29.9 µM: [57]
58.9 µM: [59]
47.3 µM: [45]
60.6 µM: [31]
64.6 µM: [42]
72.3 µM: [35]
not listed: [1]
> 100 µM: all other assays above
